The source of these data is ChEMBL document CHEMBL3886921, “Substituted pyrazoles as N-type calcium channel blockers” (2016).

In the experiment the target is Voltage-gated calcium channel. As to the kind of experiment: Functional Drug Screening System (FDSS): Calcium mobilization responses to KCl depolarization were evaluated by measuring the intensity of calcium-mediated fluorescent signal in the presence of BD Calcium Assay Dye (BD Biosciences, Franklin Lakes, N.J., U.S.A.), utilizing a Functional Drug Screening System (FDSS) by Hamamatsu Corporation (Bridgewater, N.J. U.S.A.).Twenty-four hr prior to assay, cells were seeded in clear-base poly-D-lysine-coated 384-well plates (BD Biosciences) at a density of 5,000 cells per well in culture medium and grown overnight in 5% CO2 at 37° C. On the day of assay, growth media were removed, and cells were loaded with BD calcium assay dye (BD Biosciences) for 35 min at 37° C. under 5% CO2 and then for 25 min at room temp. Utilizing the FDSS, cells were exposed to representative compounds of Formula (I) at varying concentrations, and intracellular calcium was measured for 5 min prior to the addition of 50 mM KCl for an additional 3 min of measurement. It counts as cell-based. (Calcium assays in cells follow changes in intracellular calcium, usually with a dye or a luminescent sensor.)

pIC50: −log10 of the molar value.

As to `COc1ccccc1-n1nc(OC2CC(C)(C)C(=O)C(C)(C)C2)cc1-c1ccc(Cl)cc1`, the pIC50 (commonly the negative decadic logarithm of the IC50, by convention in mol/L) was 8.01.
